Laboratory results: US11738002B2, “Methods of treating neurological and psychiatric disorders” (Sunovion Pharmaceuticals Inc., priority 2020, dated 2023)

Experiments:
[1] = tested on: female Lister hooded rats; conditions: rat, in vivo
Source text: (§1) Experimentally naïve rats were housed individually in plastic cages containing bedding. Housing rooms were maintained under a 12/12-hour light/dark cycle at controlled ambient temperature and relative humidity. Animals were allowed to acclimate to laboratory conditions before the beginning of experiments and had free access to water. Access to food was restricted to facilitate training and maintenance of operant behavior with the exception of training of female rats in the MDMA drug discrimination study. Experiments were conducted in operant chambers (MED Associates, Inc., St. Albans, Vt., U.S.A.) located within sound-attenuating, ventilated cubicles. Each chamber was equipped with a stimulus light, lever(s) located near a food receptacle which was connected to a food pellet dispenser. Chambers used for reinstatement studies were also equipped with a Sonalert® tone generator.
The training substance was administered 15 minutes before the session. […] The percentage of total responses on the training drug-appropriate lever and response rates were calculated for each rat.

[2] = tested on: Female Sprague Dawley Rats; assay: withdrawal-induced physical dependence study
Description: Animals were not dosed during the withdrawal phase. Dosing in the morning was staggered such that every animal was observed individually on each day.
Body weights were recorded prior to each dosing session on Day −6 to Day 46 and in the morning during the withdrawal phase. Only body weight recorded prior to the morning dosing session was used for statistical analysis. Food and water intake were measured once daily in the morning from Day −6 to Day 46 just prior to dosing, and in the morning of the withdrawal phase. Body temperatures were measured once daily using a rectal probe from Day −6 to Day 46 just prior to dosing, and, immediately prior to body weight measurement during the withdrawal. A detailed observation checklist was used to record any physical or behavioral signs of pharmacological effect during dosing and of drug dependence in the withdrawal phase. Rats were observed on a workbench in their open topped home cages (in the holding room where they were kept throughout the study) for a 2 min period 1 hr after the morning dose during the baseline and dosing phases and twice daily on Day 46 and during the withdrawal phase. […] For all other endpoints, withdrawal begins on Day 47.

[3] = tested on: male SD rats trained to self-administer heroin; assay: self-administration (heroin substitution) test; conditions: Sprague-Dawley, rat, in vivo
Source text: as §1

`O=C1CC2(CCCC2)CC(=O)N1CCCCN1CCN(c2ncccn2)CC1` [buspirone] was tested, and the “generalization to MDMA” value [1] was 37.2±20.4% and the “weak partial generalization to the cue elicited by MDMA” value [1] was < 50%.

`CN1C(=O)CN=C(c2ccccc2)c2cc(Cl)ccc21` [diazepam] was tested, and the “weight of the rats vs vehicle at the end of the dosing phase” value ([2]; 10/15/20 mg/kg p.o. b.i.d. on Days 1-5/6-18/19-46) was 5.4% and the “withdrawal signs on cessation of dosing” value ([2]; 10/15/20 mg/kg p.o. b.i.d., 46 days) was “Physical dependence was demonstrated”.

For `CC(=O)Oc1ccc2c3c1O[C@H]1[C@@H](OC(C)=O)C=C[C@H]4[C@@H](C2)N(C)CC[C@@]341` [heroin], the “mean number of infusions, heroin acquisition session” value [3] was 19.0±0.4.
